The test system of data set [1] is Human aortic endothelial cells (EC). The experiment in a line: Metabolic activity (CellTiter 96 AQueous One, MTS), EC monolayers. Type of data set: cell-based. The settings on record: 10 ng/mL PDGF alone, 24 hrs. The protocol: (§1) Human aortic endothelial cells (EC, Invitrogen) were cultured in Media 200 (M200, Invitrogen), supplemented with (all from Invitrogen) 2% fetal bovine serum (FBS), 1 μg/mL hydrocortisone, 10 ng/mL epidermal growth factor (EGF), 3 ng/mL basic fibroblast growth factor (FGF), and 10 μg/mL heparin. Unless otherwise noted, cells were initially seeded at 3×10^5 cells/cm^2 in Ibidi angiogenesis μ-slide (Ibidi) and allowed to proliferate for 24 hrs to establish a confluent monolayer, prior to the application of treatments to the EC cultures. Cells were used between passage numbers 3 and 8 for all assays and maintained at 37° C. with 5% CO2.
Cultures were incubated in the presence of 0, 0.01, 0.1, 1, or 10 μM DS-SILY20, with and without 10 ng/mL PDGF, for 24 hrs. The metabolic activity of the cells was determined using the CellTiter 96 AQueous One Solution Cell Proliferation Assay (Promega). Briefly, media was mixed with 3-(4,5-dimethylthiazol-2-yl)-5-(3-carboxymethoxyphenyl)-2-(4-sulfophenyl)-2H-tetrazolium, inner salt (MTS) and cultures were re-incubated for 2 hrs at 37° C. with 5% CO2. The media containing MTS was then transferred into a 96-well plate and absorbance at 490 nm was measured.

Data set [2] concerns hyperplastic EC-SMC co-cultures. Description: Metabolic activity (MTS), hyperplastic EC-SMC co-cultures. The settings on record: PDGF stimulation alone. It counts as cell-based, human. The protocol:
(§2) To better mimic the physiology of the vessel wall and further investigate the effects of therapeutics on ECs in a biologically relevant manner, two EC-SMC co-culture models, designed to mimic either healthy or diseased vasculature, were established. ECs were cultured as stated previously. Human coronary artery smooth muscle cells (SMC, Invitrogen) were cultured in Media 231 (M231, Invitrogen), supplemented with (all from Invitrogen) 4.9% FBS, 2 ng/mL FGF, […], 5 ng/mL heparin, 5 μg/mL insulin, and 0.2 μg/mL bovine serum albumin. SMCs were seeded at 5×10^4 cells/cm^2 in Ibidi angiogenesis μ-slide and allowed to proliferate for 24 hrs to allow the formation of multilayered cell constructs. Media was removed and cultures were treated either with proliferative media, as described above, or contractile media to induce a quiescent phenotype, for 24 hrs. […]
(§3) Cultures were incubated in the presence of 0, 0.01, 0.1, 1, or 10 μM DS-SILY20, with and without 10 ng/mL PDGF, for 24 hrs. The metabolic activity of the cells was determined using the CellTiter 96 AQueous One Solution Cell Proliferation Assay (Promega). […] The media containing MTS was then transferred into a 96-well plate and absorbance at 490 nm was measured.

Data set [3] has as its system quiescent EC-SMC co-cultures. Description: Metabolic activity (MTS), quiescent EC-SMC co-cultures. The note with it: PDGF stimulation alone. Type of data set: cell-based, human. The protocol: as §2, §3
In data set [4] the test system is PDGF receptor β (PDGFRβ). Description: PDGFRβ phosphorylation in ECs (sandwich ELISA). Type of data set: cell-based, human. The settings on record: EC monolayers, PDGF treatment alone (10 ng/mL). The protocol: Cells were incubated in the presence of DS-SILY20 with and without 10 ng/mL PDGF for 60 mins prior to washing with ice cold TBS and […] solubilized in lysis buffer (1% NP-40 Alternative, 20 mM Tris, 137 mM NaCl, 10% glycerol, 2 mM EDTA, 1 mM activated sodium orthovanadate, 10 μg/mL Aprotinin, and 10 μg/mL Leupeptin). Lysates were processed at 4° C. for 30 mins prior to centrifugation for 5 mins at 2000×g to remove membrane components. Sandwich ELISAs (all from R&D systems) were utilized to measure total PDGF receptor β (PDGFRβ) and total phosphotyrosine PDGFRβ. All assays were performed following the manufacturer's protocol.

Data set [5] concerns Human aortic endothelial cells (EC). Description: EC proliferation (Hoescht 33342 nuclei stain). It counts as cell-based. The note with it: PDGF alone (10 ng/mL), 24 hrs. The protocol: as §1
Cultures were incubated in the presence of DS-SILY20 with or without 10 ng/mL PDGF for 24 hrs. Cells were nuclei stained with Hoescht 33342 and […] to determine the effect of DS-SILY20 and PDGF on cell proliferation.

The test system is the same in data set [6]. The experiment in a line: EC migration on collagen (Oris Cell Migration Kit). Type of data set: cell-based. The settings on record: PDGF stimulation alone (10 ng/mL), 48 hrs. The protocol: Fibrillar collagen was coated in wells of 96-well Oris Cell Migration Kit (Platypus Technologies, Madison). Stoppers were inserted into the plate to block an inner circular portion of the well. ECs were seeded at 5×10^3 cells/well and grown to confluence in the outer portion of the well. After 48 hrs, the stoppers in the wells were removed and ECs were stained with cell tracker green (Invitrogen). To determine the effects of treatments on migration alone, ECs were dosed with 25 μg/mL mitomycin C (Sigma) for 30 mins to inhibit proliferation. Various DS-SILY20 concentrations, solubilized in M200+LSGS, were then incubated on the exposed collagen surface in the inner portion of the well for 15 min at 37° C. Unbound DS-SILY20 was rinsed from the surface and cell media, with or without 10 ng/mL PDGF, was returned to the wells. ECs were allowed to migrate from the outer to the inner portion of the wells for 48 hrs. At 48 hrs, fluorescence measurements of the center of each well were measured using a mask provided with the migration kit such that only the treated inner circular portion of the well was measured.

In data set [7] the test system is interleukin-6 (IL-6). The experiment in a line: IL-6 expression in EC monolayers (Pro-Inflammatory I kit). It counts as cell-based, human. The note with it: 10 ng/mL PDGF alone, 24 hrs. The protocol:
as §1
Cells were incubated in the presence of DS-SILY20 with or without 10 ng/mL PDGF for 24 hrs. Media was removed from the cultures and a Pro-Inflammatory I kit (Meso Scale Discovery) was used to analyze cytokine production from EC monolayers, hyperplastic co-cultures, and quiescent co-cultures according to manufacturer's instructions. Briefly, plates were warmed to room temperature and incubated with 25 μL of samples and standards for 2 hrs at room temperature with vigorous shaking. […] After washing three times with PBS with 0.05% Tween-20, 2× read buffer was added to the plate and imaged using a Sector Imager 2400A (Meso Scale Discovery). […] Data were analyzed using the MSD Discovery Workbench Software.

Data set [8] concerns E-selectin. Description: E-selectin production in EC monolayers (Vascular Injury Marker I kit). It counts as cell-based, human. The note with it: 10 ng/mL PDGF alone. The protocol:
as §1
(§4) Following treatment with DS-SILY20 with or without 10 ng/mL PDGF for 24 hrs, cells were washed twice with ice cold PBS and solubilized in lysis buffer (9 M urea, 4% CHAPS, and phosphatase inhibitor cocktail-1 in Millipore water). Lysates were processed at 4° C. for 30 mins prior to centrifugation for 20 mins at 18,000×g to remove membrane components. A BCA assay protein kit (Pierce) was used to quantify total protein. […] After washing three times with PBS with 0.05% Tween-20, 2× Read buffer was added to the plate and imaged using a Sector Imager 2400A. Data were analyzed using the MSD Discovery Workbench Software.

In data set [9] the test system is P-selectin. The experiment in a line: P-selectin production in EC monolayers (Vascular Injury Marker I kit). The note with it: PDGF alone. It counts as cell-based, human. The protocol: as §1, §4
The subject of data set [10] is thrombomodulin. Description: Thrombomodulin production in EC monolayers (Vascular Injury Marker I kit). Type of data set: cell-based, human. The settings on record: PDGF alone. The protocol:
as §1, §4

Data set [11] deals with ERK-1/2. Description: ERK-1/2 phosphorylation in EC monolayers. Type of data set: cell-based, human. The note with it: 10 ng/mL PDGF alone, 10 mins. The protocol:
(§5) The phosphorylation of mitogen-activated protein kinases (MAPK), including extracellular signal-related kinase (ERK) and p38 MAPK (p38), was examined. Cells were incubated in the presence of DS-SILY20 with or without 10 ng/mL PDGF for […] prior to washing with ice cold tris buffered saline (TBS) and solubilized in lysis buffer (150 mM NaCl, 20 mM Tris, 1 mM EDTA, 1 mM EGTA, 1% Triton-X-100, plus protease inhibitors and phosphatase inhibitors). Lysates were processed at 4° C. for 30 mins prior to centrifugation for 20 mins at 18,000×g to remove membrane components. Phospho-p38 (Thr180/Tyr182) and phospho-ERK-1/2 (Thr/Tyr: 202/204; 185/187) levels were evaluated using the MAP Kinase Whole Cell Lysate kit (Meso Scale Discovery); Total p38 and total ERK-1/2 were determined via MAP Kinase (Total Protein) Whole Cell Lysate Kit (Meso Scale Discovery), according to manufacturer's instructions. Briefly, plates were warmed to room temperature and incubated with 25 μL of samples for 3 hrs at room temperature with vigorous shaking. Following gentle rinsing of the wells, the detection antibody was then added and incubated for 1 hr at room temperature with vigorous shaking. After washing three times with TBS, 2× read buffer was added to the plate and imaged using a Sector Imager 2400A. Data were analyzed using the MSD Discovery Workbench Software. […]

For data set [12], the system named is p38 MAPK (p38). The experiment in a line: p38 MAPK phosphorylation in EC monolayers. It counts as cell-based, human. The note with it: PDGF alone. The protocol: as §5
Data set [13] concerns interferon-γ (IFN-γ). Description: IFN-γ production, hyperplastic co-cultures. Type of data set: cell-based, human. The note with it: 10 ng/mL PDGF alone. The protocol: as §2
(§6) Cells were incubated in the presence of DS-SILY20 with or without 10 ng/mL PDGF for 24 hrs. […] After washing three times with PBS with 0.05% Tween-20, 2× read buffer was added to the plate and imaged using a Sector Imager 2400A (Meso Scale Discovery). […] Data were analyzed using the MSD Discovery Workbench Software.

The subject of data set [14] is interleukin-6 (IL-6). Description: IL-6 production, hyperplastic co-cultures. Type of data set: cell-based, human. The settings on record: 10 ng/mL PDGF alone. The protocol:
as §2, §6

In data set [15] the test system is tumor necrosis factor-α (TNF-α). The experiment in a line: TNF-α production, hyperplastic co-cultures. It counts as cell-based, human. The settings on record: 10 ng/mL PDGF alone. The protocol: as §2, §6
For data set [16], the system named is interferon-γ (IFN-γ). Description: IFN-γ production, quiescent co-cultures. It counts as cell-based, human. The settings on record: 10 ng/mL PDGF alone. The protocol:
as §2, §6

Data set [17] concerns tumor necrosis factor-α (TNF-α). Description: TNF-α production, quiescent co-cultures. It counts as cell-based, human. The settings on record: 10 ng/mL PDGF alone. The protocol: as §2, §6
The subject of data set [18] is E-selectin. The experiment in a line: E-selectin production, hyperplastic co-cultures. It counts as cell-based, human. The note with it: PDGF alone. The protocol:
as §2
(§7) Following treatment with DS-SILY20 with or without 10 ng/mL PDGF for 24 hrs, cells were washed twice with ice cold PBS and solubilized in lysis buffer (9 M urea, 4% CHAPS, and phosphatase inhibitor cocktail-1 in Millipore water). […] A BCA assay protein kit (Pierce) was used to quantify total protein. […] After washing three times with PBS with 0.05% Tween-20, 2× Read buffer was added to the plate and imaged using a Sector Imager 2400A. Data were analyzed using the MSD Discovery Workbench Software.

The subject of data set [19] is P-selectin. The experiment in a line: P-selectin production, hyperplastic co-cultures. It counts as cell-based, human. The note with it: PDGF alone. The protocol: as §2, §7
In data set [20] the test system is thrombomodulin. Description: Thrombomodulin production, hyperplastic co-cultures. The note with it: PDGF alone. It counts as cell-based, human. The protocol: as §2, §7
For data set [21], the system named is E-selectin. Description: E-selectin production, quiescent co-cultures. It counts as cell-based, human. The settings on record: PDGF alone. The protocol:
as §2, §7

Data set [22] concerns P-selectin. The experiment in a line: P-selectin production, quiescent co-cultures. It counts as cell-based, human. The settings on record: PDGF alone. The protocol:
as §2, §7

The subject of data set [23] is thrombomodulin. The experiment in a line: Thrombomodulin production, quiescent co-cultures. It counts as cell-based, human. The note with it: PDGF alone. The protocol: as §2, §7

Consider platelet-derived growth factor [PDGF], for which, in [1], the “metabolic activity of ECs” value was “did not influence”. The metabolic activity entry in data set [2] and in [3] was “not impacted” each time. In data set [4], the phospho-PDGFRβ levels result is listed as “significantly increased”. Besides, in data set [5], the EC proliferation result was “significantly increased”. Besides, the “enhancement of EC migration” value in data set [6] was 40.3%. The “IL-6 production vs no treatment controls” value in data set [7] was “did not alter”. Also, in [8], the “E-selectin production vs no treatment controls” value is recorded as “did not alter”. Also, in [9], the P-selectin expression entry is listed as “induced”. Besides, the thrombomodulin expression result in data set [10] was “induced”. Also, in data set [11], the “ERK-1/2 phosphorylation vs no treatment controls” value was “increased”. In addition, in [12], the “phosphorylation of p38” value is recorded as “did not alter”. In addition, the “production of IFN-γ vs no treatment controls” value in [13] and in data set [16] was “significantly increased” each time. In data set [14], the “production of IL-6 vs no treatment controls” value was “significantly increased”. Also, the “production of TNF-α vs no treatment controls” value in [15] and in data set [17] was “significantly increased” throughout. The E-selectin expression entry in [18] and in data set [21] was “did not stimulate” in each case. The P-selectin production entry in data set [19] and in [22] was “significantly increased” each time. For the same substance, the thrombomodulin production entry in [20] and in data set [23] was “significantly increased” each time.

These data come from patent US10772931B2, “Collagen binding synthetic peptidoglycans for treatment of endothelial dysfunction” (Purdue Research Foundation, priority 2014, dated 2020).
